Data: US8703705B2, “Modified factor VIII peptides” (Apitope International NV, priority 2009, dated 2014)
No end group written: not given here.

Experiments:
Solubility of peptide = type: physicochemical
[1] = test system: FVIII-DR2+ T cell hybridoma clones; assay: FVIII peptide specificity of T cell hybridomas generated from FVIII-/- HLA-DR2+ mice (IL-2 ELISA); type: cell-based, mouse; conditions: of 19 hybridomas specific for factor VIII; factor VIII deficient HLA-DR2 mice
From the text: Factor VIII deficient mice expressing HLA-DR2 were immunised with factor VIII in adjuvant. Spleen cells from the immunised mice were restimulated in vitro with factor VIII and the resulting lymphoblasts were fused with BW5147, as described above. T-cell hybridomas were screened for their response to the 12 predicted peptides. Yet again, the majority of hybridomas responded to peptides DNIMV (SEQ ID NO: 11) and PRCLT (SEQ ID NO: 9). Of 19 hybridomas specific for factor VIII, 10 responded to DNIMV (SEQ ID NO: 11), 6 to PRCLT (SEQ ID NO: 9), 1 to PPIIA (SEQ ID NO: 4), 1 to SLYIS (SEQ ID NO: 3) and 1 to DTLLI (SEQ ID NO: 8).
The same method was followed as for (ii), except the mice were FVIII-deficient and HLA-DR2+.

LNC from FVIII-DR2+ mice = assay: Recall responses of lymph node cells from FVIII-DR2+ mice primed with rhFVIII/CFA; type: cell-based, mouse; conditions: FVIII-DR2+ animals immunised with factor VIII in adjuvant; FIG. 3
From the text: HLA-DR2 transgenic mice were crossed with factor VIII deficient mice to create a model of haemophilia expressing the human HLA class II MHC molecule.
These FVIII-DR2+ animals were immunised with factor VIII in adjuvant. Draining lymph nodes were isolated and tested for their response to the peptide panel.
The same method was followed as for (i), except the mice were FVIII-deficient, HLA-DR2+ and murine MHC class II null.

[2] = test system: FVIII+DR2+ T cell hybridoma clones; assay: FVIII peptide specificity of T cell hybridomas generated from DR2+ mice (IL-2 ELISA); type: cell-based, mouse; conditions: for number of hybridomas responding to peptide: of the 27 hybridomas screened, 20 μg/ml peptide, IL-2
From the text: HLA-DR2 mice were first immunised with factor VIII in adjuvant. Spleen cells from immune mice were restimulated in vitro with factor VIII and the resulting lymphoblasts were fused with the BW5147 thymoma using polyethylene glycol.
T-cell hybridomas were selected in HAT medium and the hybridomas cloned and tested for their response to factor VIII. The hybridomas were then screened for their response to the 12 predicted peptides.
HLA-DR2+ murine MHC class II null mice were immunised as above. On day 10 draining lymph nodes were removed and lymphocytes cultured at 2.5×10^6 cells/ml, 1 ml/well in 24 well plates in the presence of 20 μg/ml rhFVIII for 3 days. Following this stimulation, lymphocytes were recovered, washed and fused with TCRα^−β^− BW fusion partner cells at a ratio of 4 BW cells to 1 lymphocyte, using polyethylene glycol as described by Nelson et al (1980) PNAS 77(5):2866. Fused cells were carefully washed and then plated out in flat bottomed 96 well plates for 2 days before the addition of HAT medium to select for T cell hybridomas. Cells were monitored for growth and approximately 10 days after fusions were performed, individual clones were selected and transferred to 24 well plates in HAT medium. Clones were maintained in HAT medium for at least 2 weeks before being weaned into HT medium and then complete medium. Clones were tested for antigenic specificity by culturing 100 μl of hybridoma cells with 5×10^4 Mgar cells in the presence and absence of 20 μg/ml rhFVIII overnight. Supernatants were then collected and assessed for IL-2 production by ELISA, with clones producing IL-2 in response to rhFVIII being considered positive for FVIII-specificity. To investigate the repertoire of predicted FVIII peptides FVIII-specific clones were again tested for IL-2 production, following overnight incubation with 20 μg/ml of each of the 12 peptides.

[3] = test system: FVIII-/- clones with fresh or fixed Mgar cells; assay: Apitope test: presentation by fresh or paraformaldehyde-fixed Mgar cells to hybridoma clones, IL-2 by ELISA; type: cell-based, mouse; conditions: Mgar cells fresh or fixed with 1% paraformaldehyde, 20 μg/ml, FIG. 5
Description: In order to be an apitope, a peptide must be capable of binding to an MHC class I or II molecule without further antigen processing (i.e. trimming) and be presented to a T cell. In the present case, the capacity of peptides to be presented by fixed APC was investigated.
Mgar cells were either fresh or fixed with 1% paraformaldehyde. Clones were tested for antigenic specificity by culturing 100 μl of hybridoma cells with 5×10^4 Mgar cells in the presence and absence of 20 μg/ml rhFVIII or peptide epitopes overnight. Supernatants were then collected and assessed for IL-2 production by ELISA.

HLA-DR2 transgenic mice = assay: Tolerisation of FVIII-specific responses in DR2+ mice by peptide pre-treatment before priming with rhFVIII/CFA; type: in vivo, mouse; conditions: 3 x 100 μg i.p. in PBS prior to priming with rhFVIII/CFA; FIG. 6
Description: HLA-DR2 transgenic mice were treated with either of the two soluble peptides, or PBS as a control, prior to immunisation with factor VIII in adjuvant. Draining lymph nodes were isolated and the cells restimulated in vitro with factor VIII protein in order to assess the immune status of the mice.
HLA-DR2+ murine MHC class II null mice were treated 3 times with 100 μg of DNIMV (SEQ ID NO: 11), PRCLT (SEQ ID NO: 9) or PPIIA (SEQ ID NO: 4) dissolved in PBS, or the equivalent volume of PBS alone. Peptides were administered intraperitoneally, with 3-4 days between each dose. Following the final administration, mice were primed with rhFVIII emulsified in complete Freunds adjuvant as for (i). 10 days later, draining lymph nodes were recovered and lymphocytes subsequently cultured in vitro with rhFVIII, or each of the tolerising peptides as well as control antigens, for 72 hours before the addition of tritiated thymidine as for (i). (vi) Tolerisation of FVIII-Specific Responses in DR2+Mice by Pre-Treatment with a Combination Immunodominant FVIII Peptides

With “DNIMVTFRNQASRPY [DNIMV, DNIMVTFRNQASRPY]” the solubility (Solubility of peptide) was “partly, but not completely soluble”.
For “DTLLIIFKNQASRPY (listed as Homo sapiens) [FVIII 15mer peptide, first AA 478]”, the “number of hybridomas responding to peptide” value (from here on “number”) [1] was 1.
For EDNIMVTFRNQASR [EDNIMV, EDNIMVTFRNQASR], the solubility (Solubility of peptide) was “sufficiently soluble to allow intranasal peptide delivery” and the “solubility relative to parent peptide” value (Solubility of peptide; compared with DNIMV) was “more soluble than DNIMV”.
With “GTLMVFFGNVDSSGI (listed as Homo sapiens) [FVIII 15mer peptide, first AA 2140]” the “response of draining lymph node cells to peptide” value (LNC from FVIII-DR2+ mice) was “weak response”.
With “PPIIARYIRLHPTHY (listed as Homo sapiens) [FVIII 15mer peptide, first AA 2161]” the “number” value [1] was 1, the “character of hybridoma response to peptide” value ([2]; 27 hybridomas screened) was “weaker and less specific” and the “number” value [2] was 3.
For “PRCLTRYYSSFVNME (listed as Homo sapiens) [FVIII 15mer peptide, first AA 545]”, the “number” value [1] was 6, the “presentation by live and fixed APC (function as apitope)” value [3] was “presented by both live and fixed mgar cells” and the “suppression of the immune response to factor VIII (LNC recall to FVIII)” value (HLA-DR2 transgenic mice) was “substantial suppression of the immune response to factor VIII”. For the same sequence, the “response of draining lymph node cells to peptide” value (LNC from FVIII-DR2+ mice) was “responded well” and the “number” value [2] was 3.
In the case of “RYLRIHPQSWVHQIA (listed as Homo sapiens) [FVIII 15mer peptide, first AA 2322]”, the “response of draining lymph node cells to peptide” value (LNC from FVIII-DR2+ mice) is reported as “significant response”.
For “SLYISQFIIMYSLDG (listed as Homo sapiens) [FVIII 15mer peptide, first AA 2114]”, the “number” value [1] was 1.
